The structures appear in SMILES notation.

Data set [1] relates to Plasmodium falciparum. The experiment in a line: Antimalarial activity against chloroquine-sensitive Plasmodium falciparum 3D7. The data set is classed as functional, organism-based.
Data set [2] has as its system Plasmodium falciparum. The experiment in a line: Antimalarial activity against chloroquine-resistant Plasmodium falciparum TM6. Format: functional, organism-based.
Data set [3] has as its system Plasmodium falciparum. Kind of data set: Antimalarial activity against chloroquine-sensitive Plasmodium falciparum HB3. The data set is classed as functional, organism-based.
The target in data set [4] is β-hematin formation (no protein target). The experiment in a line: Inhibition of beta-hematin formation as molar equivalent relative to hemin causing blockade in BHIA.
Data set [5] deals with Heme. The experiment in a line: Binding affinity to heme assessed as binding constant for stepwise binding of 2 equivalent of drug to 1 molecule of heme in presence of 40% DMSO by UV-visible spectroscopy.
Data set [6] concerns Heme. The experiment in a line: Binding affinity to heme assessed as binding constant for stepwise binding of 2 molecules of heme to 1 equivalent of drug in presence of 40% DMSO by UV-visible spectroscopy.
A short description of data set [7]: Clearance in iv dosed mouse. The data set is classed as ADME, organism-based. The settings on record: in vivo.
Data set [8] in a line: Clearance in iv dosed rat. Format: ADME, organism-based. The settings on record: in vivo.
Data set [9] is described as follows: Oral bioavailability in mouse. The data set is classed as ADME, organism-based. The settings on record: in vivo.
The nature of data set [10]: Oral bioavailability in rat. Particulars: in vivo. Format: ADME, organism-based.
Data set [11] deals with Plasmodium yoelii. The experiment in a line: Antimalarial activity as reduced parasitaemia against Plasmodium yoelii 17X infected CD1 mice (Mus musculus) perorally dosed daily for 4 days. Format: functional. The settings on record: po, 96 h.
The subject of data set [12] is Plasmodium yoelii. Kind of data set: Antimalarial activity as minimal concentration for parasite elimination at day 23 against Plasmodium yoelii 17X intravenously inoculated CD1 mice (Mus musculus) dosed 1 hrs post infection then daily for 4 days.
The nature of data set [13]: Toxicity in po dosed mouse assessed as drug level causing no observed adverse effects administered as single dose. The data set is classed as organism-based. The settings on record: in vivo, read-out: Activity.
A short description of data set [14]: Toxicity in po dosed mouse assessed as drug level causing no observed adverse effects administered as once daily for 4 days. The data set is classed as organism-based. The settings on record: in vivo, read-out: Activity.
The test system of data set [15] is Mus musculus. The experiment in a line: Toxicity in po dosed mouse assessed as induction of hepatotoxicity at drug dose above no observed adverse effects level. The settings on record: in vivo. The data set is classed as organism-based.
Data set [16] concerns Mus musculus. The experiment in a line: Toxicity in po dosed mouse assessed as induction of hematological toxicity at drug dose above no observed adverse effects level. The data set is classed as organism-based. Particulars: in vivo.
Data set [17] is described as follows: Partition coefficient, log P of the compound. Format: physicochemical. Particulars: octanol/water.

Regarding `Fc1ccc(Nc2ccnc3cc(Cl)ccc23)cc1CN1CCOCC1`, the IC50 in the data set with Plasmodium falciparum [1] is 551 nM.

In the case of `CCN(CC)Cc1cc(Nc2ccnc3cc(Cl)ccc23)ccc1F`, the IC50 in the data set on Plasmodium falciparum [1] was 27.3 nM.

On to `CCN(CC)Cc1cc(Nc2ccnc3cc(Cl)ccc23)ccc1Cl`, for which the IC50 in the data set on Plasmodium falciparum [1] turned out to be 30.4 nM; in the data set with Plasmodium falciparum [2], 10.2 nM; in the data set on Plasmodium falciparum [3] it was 12.3 nM.

On to `Clc1ccc2c(Nc3cccc(Cn4ccnc4)c3)ccnc2c1`, for which, in data set [4], the IC50 was 2.65 molar ratio.

For the compound `Fc1ccc(Nc2ccnc3cc(Cl)ccc23)cc1Cn1ccnc1`, the IC50 came to 27.2 nM in the data set on Plasmodium falciparum [1] and 1.78 molar ratio in [4].

In the data set on Plasmodium falciparum [1], `CC(C)(C)NCc1ccc(Nc2ccnc3cc(Cl)ccc23)cc1O` returned an IC50 of 6 nM.

As to `O=C(NCc1cc([N+](=O)[O-])ccc1F)c1ncc[nH]1`, the IC50 in the data set on Plasmodium falciparum [2] came to 5 nM; in the data set with Plasmodium falciparum [3] it was 10.1 nM.

For the compound `CC(C)(C)NCc1cccc(Nc2ccnc3cc(Cl)ccc23)c1`, in data set [4], the IC50 came to 1.65 molar ratio.

`CN1CCN(Cc2cc(Nc3ccnc4cc(Cl)ccc34)ccc2F)CC1` returned an IC50 with Plasmodium falciparum [1] of 35.1 nM.

In the case of `Clc1ccc2c(Nc3ccc(Cl)c(CN4CCN(c5ccccn5)CC4)c3)ccnc2c1`, the IC50 in the data set on Plasmodium falciparum [1] was 27.2 nM; in the data set with Plasmodium falciparum [2] it was 500 nM; with Plasmodium falciparum [3], 485 nM.

Consider `OC(c1cc(C(F)(F)F)nc2c(C(F)(F)F)cccc12)C1CCCCN1` (stereo not drawn), for which the results for the log Ks with Heme [5] and with Heme [6] were 3.84 and 3.17, respectively.

For `CCNCc1ccc(Nc2ccnc3cc(Cl)ccc23)cc1O` [DESETHYL ISOQUINE], the clearance (in general, a measure of how efficiently the substance is removed, as volume per time) in data set [7] is 43.5 mL/min/kg; in data set [8], 61.5 mL/min/kg. Further, the bioavailability (usually dose-corrected exposure relative to a reference, in per cent) amounted to 100% in data set [9] and 60% in data set [10]. Moreover, in the data set with Plasmodium yoelii [11], the ED50 (in general, the midpoint of the dose-response relation) was found to be 5.5 mg/kg. This compound returned an ED90 with Plasmodium yoelii [11] of 8 mg/kg. In the data set with Plasmodium yoelii [12], the Activity is >40 mg/kg.

For the compound `Clc1ccc2c(Nc3ccc(Cl)c(CN4CCCC4)c3)ccnc2c1`, the IC50 turned out to be 4.2 nM in the data set with Plasmodium falciparum [2] and 15.2 nM with Plasmodium falciparum [3].

For the compound `CCN1CCN(Cc2cc(Nc3ccnc4cc(Cl)ccc34)ccc2Cl)CC1`, the IC50 in the data set on Plasmodium falciparum [1] was determined as 39.7 nM; in the data set with Plasmodium falciparum [2], 10.3 nM; in the data set on Plasmodium falciparum [3], 9.6 nM.

Turning to `CCCN(CCC)Cc1cc(Nc2ccnc3cc(Cl)ccc23)ccc1F`, the IC50 with Plasmodium falciparum [1] came out at 85.2 nM.

With `Fc1ccc(Nc2ccnc3cc(Cl)ccc23)cc1CN1CCCCC1`, the IC50 with Plasmodium falciparum [1] is 33.2 nM.

As to `CCN(CC)CCCC(C)Nc1ccnc2cc(Cl)ccc12` (stereo not drawn) [CHLOROQUINE], the NOAEL in [13] stood at 300 mg/kg. For the same compound, the NOAEL at 96 h in [14] was 300 mg/kg. The Activity entry with Mus musculus [15] and in the data set on Mus musculus [16] was “Toxic” each time.

`C=C[C@H]1CN2CC[C@H]1C[C@H]2[C@H](O)c1ccnc2ccc(OC)cc12`: the log Ks was found to be 4.4 in the data set on Heme [5] and 4.1 with Heme [6].

In turn, `CCCCN(CCCC)Cc1cc(Nc2ccnc3cc(Cl)ccc23)ccc1F` returned an IC50 with Plasmodium falciparum [1] of 95.2 nM.

`CCCN(CCC)Cc1cc(Nc2ccnc3cc(Cl)ccc23)ccc1Cl`: the IC50 with Plasmodium falciparum [1] amounted to 277 nM.

Take `CN1CCN(Cc2cc(Nc3ccnc4cc(Cl)ccc34)ccc2Cl)CC1`: the IC50 amounted to 86.8 nM with Plasmodium falciparum [1], 24.4 nM in the data set with Plasmodium falciparum [2] and 54.5 nM in the data set with Plasmodium falciparum [3].

Regarding `Clc1ccc2c(Nc3ccc(Cl)c(CN4CCCCC4)c3)ccnc2c1`, the results for the IC50 with Plasmodium falciparum [1], in the data set on Plasmodium falciparum [2] and with Plasmodium falciparum [3] were 25.7 nM, 9.4 nM and 12.3 nM, respectively.

Consider `CC(C)N1CCN(Cc2cc(Nc3ccnc4cc(Cl)ccc34)ccc2Cl)CC1`, for which the IC50 with Plasmodium falciparum [2] worked out at 6.4 nM; in the data set on Plasmodium falciparum [3] it was 9.1 nM; in data set [4], 1.66 molar ratio. The logP (commonly the decadic logarithm of the partition coefficient of the neutral form, usually between octanol and water) in data set [17] was determined as 5.14.

In the case of `CCCCN(CCCC)Cc1cc(Nc2ccnc3cc(Cl)ccc23)ccc1Cl`, the values for the IC50 in the data set with Plasmodium falciparum [1], in the data set on Plasmodium falciparum [2] and in the data set on Plasmodium falciparum [3] were 345 nM, 96.3 nM and 144 nM, respectively.

These data come from ChEMBL document CHEMBL1153384, “Synthesis, antimalarial activity, and preclinical pharmacology of a novel series of 4'-fluoro and 4'-chloro analogues of amodiaquine. Identification of a suitable "back-up" compound for N-tert-butyl isoquine” (J Med Chem, 2009).
